Assay results as given in patent US20230406839A1, “Bifunctional Compounds And Methods Of Using The Same” (The General Hospital Corporation, priority 2020, published 2023).

Legend:
HeLa cells [1] = assay: Azide metabolic labeling of HeLa cells, detected with DBCO-FAM in a fluorescent plate reader; format: cell-based; conditions: AzNAM 25-125 μM for 20 hours, then DBCO-FAM 10 μM for 1 hour, 96-well plate reader (FIG. 1)
Description: Initially, cells are cultured in a suitable culture vessel such that their level of confluency at the time of addition of the azide-modified sugar AzNAM is not more than 80%.
In particular, HeLa cells were plated in 6-well plates (2.5×10^4 cells/well) and incubated for 48 hours in DMEM-10% FBS medium in a standard 5% CO2 atmosphere. Medium from each well was removed, and each well was washed with 2 ml of phosphate buffered saline (PBS), and fresh DMEM-FBS (1 ml) added. Subsequently, varying amounts of AzNAM (solubilized in DMSO) were added to the wells in small (10 μl) volumes to produce the desired final concentrations in the range 25-125 μM. After an additional 20 hours incubation, the medium in each well was removed, and the wells were washed with 2 ml of PBS, followed by addition of 1 ml of PBS. Then, a fluorescent bio-orthogonally azide-reactive reagent DBCO-FAM (Broadpharm) was directly added to each well to produce a final concentration of 10 μM.
Plates with added DBCO-FAM were protected from bright light and incubated for 1 hour at room temperature. Supernatants in each well were then removed, and each well was washed twice with 2 ml of PBS. […] After pelleting and washing in PBS, cells were resuspended in 150 μl of PBS and counted. Defined numbers in 50 μl volumes in a 96-well Blackwell plate (Corning) were assayed for fluorescence in a fluorescent plate reader (Tecan).

HeLa cells [2] = assay: Azide metabolic labeling of HeLa cells, detected with DBCO-FAM by flow cytometry; format: cell-based; conditions: AzNAM 125 μM for 20 hours, versus cells receiving no azide-modified sugar (FIG. 2)
Description: In separate trials, HeLa cells were added to wells of a 12-well plate at 10,000 cells/well, and cultured for 72 hours under normal conditions. The wells were then washed with 1 ml of PBS, and 0.5 ml of DMEM-10% FBS was added. AzNAM was then added to a final concentration of 125 μM, with cells receiving no azide-modified sugar as controls. After 20 hours, cells were harvested with CellStripper (250 μl/well), washed with PBS, and subjected to flow analysis.

## azido-N-acetylmannosamine [AzNAM]
HeLa cells [1]
  cell-associated fluorescence after reaction with DBCO-FAM: cell-associated fluorescence increased as a function of the levels of AzNAM
HeLa cells [2]
  flow cytometry peak shift after reaction with DBCO-FAM: marked and well-demarcated peak shifts were observed
